{"source": "patent US20240358701A1", "about": "“PHARMACEUTICAL COMPOSITIONS AND COMBINATIONS COMPRISING INHIBITORS OF THE ANDROGEN RECEPTOR AND USES THEREOF” (ESSA Pharma Inc., priority 2021, published 2024)", "key": {"[1]": {"test": "Phase 1 dose escalation (Example 3): PK evaluation / drug-drug interaction", "type": "in vivo, human", "conditions": "for exposure under drug-drug interaction with a concomitant medication (strong CYP3A inducer): discontinued at end of cycle 2; for AUC: human, plasma, oral, 600 mg QD, read-out: AUCss for Compound A", "method": "Phase 1 of the study is a single-arm dose escalation study of Compound A in combination with a fixed dose of enzalutamide (120 mg/day). This portion of the study primarily evaluates the safety and tolerability of the drug combination and establishes the RP2CD for Compound A and enzalutamide when dosed in combination. In addition, blood sampling will be conducted for PK evaluation to assess the potential drug-drug interaction (DDI) between the two drugs.\nIn the Phase 1 part of the study each dose cohort will receive a 7-day run-in with single agent Compound A to establish steady-state concentrations of this drug at that dose level, followed by 28-day cycles of the combination Compound A with enzalutamide. Subjects may remain on study treatment as long as they are tolerating treatment without disease progression based on Response Evaluation Criteria in Solid Tumors (RECIST) v1.1 or based on Prostate Cancer Working Group 3 (PCWG3) criteria. A 30-day End of Treatment Visit will be conducted 30 days from the date of the last dose.\nFor Cohort 1, subjects (n=3) were orally administered 600 mg QD (once a day) of Compound A alone for 7 days then administered 600 mg QD Compound A in combination with 120 mg QD enzalutamide for at least one cycle (e.g., 28 days). Two subjects received the combination of Compound A and enzalutamide for at least 4 cycles (e.g., 16 weeks).\nThe plasma concentration data for Compound A, enzalutamide, N-desmethylated enzalutamide (M2; active metabolite) will be analyzed using non-compartmental methods to obtain estimates of standard PK parameters.\nPK parameters of Compound A following multiple dosing including but not limited to plasma area under the concentration-time curve from time zero to 24 hours (AUC0-24), maximum concentration (Cmax), observed pre-dose plasma concentration during multiple dosing (Ctrough), time to reach Cmax (Tmax), apparent terminal elimination half-life (t½; whenever feasible to calculate), apparent volume of distribution at steady state after extravascular administration (Vss/F), apparent clearance after extravascular administration (CL/F).\nPK parameters of enzalutamide and its primary active metabolite following multiple dosing including but not limited to AUC0-24, Cmax, Ctrough, Tmax, t½ (whenever feasible to calculate), Vss/F, CL/F."}, "[2]": {"conditions": "enzalutamide monotherapy, cited from earlier work"}, "[3]": {"conditions": "Cohort 1: 600 mg QD Compound A + 120 mg QD enzalutamide"}}, "note": "Where two headings read alike, the source gives them in different places.", "data": [{"smiles": "CC(C)(c1ccc(OCc2ccnc(NS(C)(=O)=O)n2)cc1)c1cc(Cl)c(OCCCl)c(C#N)c1", "note": "[Compound A, N-(4-((4-(2-(3-chloro-4-(2-chloroethoxy)-5-cyanophenyl)propan-2-yl)phenoxy)methyl)pyrimidin-2-yl)methanesulfonamide]", "values": [{"measurement": "exposure under drug-drug interaction with a concomitant medication (strong CYP3A inducer)", "setting": "[1]; Cohort 1, third subject", "result": "significant decrease in exposure"}, {"measurement": "Compound A exposure, impact of enzalutamide", "setting": "[1]; [3]", "result": "impacted by enzalutamide with higher metabolism of Compound A observed"}, {"measurement": "AUC", "setting": "[1]; Cohort 1, first subject, no prior chemotherapy (FIG. 1A)", "result": "~235000", "unit": "ng·h/mL"}, {"measurement": "AUC", "setting": "[1]; Cohort 1, second subject, prior chemotherapy (FIG. 1B)", "result": "~62000", "unit": "ng·h/mL"}, {"measurement": "AUC", "setting": "[1]; Cohort 1, third subject, prior chemotherapy, concomitant strong CYP3A inducer (FIG. 1C)", "result": "~33000", "unit": "ng·h/mL"}]}, {"smiles": "CNC(=O)c1ccc(N2C(=S)N(c3ccc(C#N)c(C(F)(F)F)c3)C(=O)C2(C)C)cc1F", "note": "[enzalutamide, reference compound]", "values": [{"measurement": "exposure under drug-drug interaction with a concomitant medication (strong CYP3A inducer)", "setting": "[1]; Cohort 1, third subject", "result": "significant decrease in exposure"}, {"measurement": "enzalutamide exposure, impact of Compound A administration", "setting": "[1]; [3]", "result": "only minimally impacted"}, {"measurement": "90 day confirmed PSA<0.2 ng/mL rate", "setting": "[2]; post-chemotherapy population", "result": 1, "unit": "%"}, {"measurement": "90 day confirmed PSA<0.2 ng/mL rate", "setting": "[2]; pre-chemotherapy population", "result": 5, "unit": "%"}]}]}
